The source of these data is ChEMBL document CHEMBL5365540, “Structure-activity relationship studies and biological properties evaluation of peptidic NRP-1 ligands: Investigation of N-terminal cysteine importance” (Bioorg Med Chem, 2023).

Calls of active or inactive are those of the source. No cut-off for these calls is given here. Where a SMILES comes first, the peptide text is derived from it.

In one data set the target is VEGA-NRP1 (Homo sapiens, UniProt O14786). Nature of the data set: Inhibition of human biotinylated-VEGFA165 binding to recombinant human NRP-1 measured after 2 hrs by chemiluminescent based ELISA. In kind it is protein assay. In general terms: An ELISA detects its analyte on a solid surface through an enzyme-linked reagent.
VEGA-NRP1, sequence (O14786 whole entry, one chain of several): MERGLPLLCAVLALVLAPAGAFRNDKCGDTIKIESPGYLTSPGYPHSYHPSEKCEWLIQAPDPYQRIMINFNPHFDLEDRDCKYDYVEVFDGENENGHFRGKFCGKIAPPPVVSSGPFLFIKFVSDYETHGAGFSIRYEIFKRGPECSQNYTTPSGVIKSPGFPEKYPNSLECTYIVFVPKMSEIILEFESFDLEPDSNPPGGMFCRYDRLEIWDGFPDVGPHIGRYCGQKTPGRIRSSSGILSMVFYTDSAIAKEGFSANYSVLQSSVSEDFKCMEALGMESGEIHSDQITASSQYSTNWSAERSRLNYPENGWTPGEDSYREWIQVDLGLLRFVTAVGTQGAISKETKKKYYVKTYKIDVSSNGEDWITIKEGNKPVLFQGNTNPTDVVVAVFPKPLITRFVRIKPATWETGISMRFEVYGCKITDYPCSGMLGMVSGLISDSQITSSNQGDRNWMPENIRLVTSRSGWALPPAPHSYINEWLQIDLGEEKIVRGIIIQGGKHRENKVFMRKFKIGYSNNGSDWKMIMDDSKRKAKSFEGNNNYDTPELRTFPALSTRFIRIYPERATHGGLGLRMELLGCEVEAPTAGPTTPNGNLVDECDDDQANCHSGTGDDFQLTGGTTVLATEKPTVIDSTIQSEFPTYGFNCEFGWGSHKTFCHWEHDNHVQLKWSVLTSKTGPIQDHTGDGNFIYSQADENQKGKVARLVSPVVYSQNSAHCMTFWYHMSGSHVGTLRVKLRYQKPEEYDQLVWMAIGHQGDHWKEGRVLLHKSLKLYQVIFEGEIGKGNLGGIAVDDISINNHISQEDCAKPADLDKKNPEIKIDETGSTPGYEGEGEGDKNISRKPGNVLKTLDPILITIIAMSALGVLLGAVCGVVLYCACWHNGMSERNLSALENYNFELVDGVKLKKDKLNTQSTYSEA
The next data set deals with T1, NRP2-VEGA (Homo sapiens, UniProt O60462+P15692).
T1 sequence (P15692 whole entry): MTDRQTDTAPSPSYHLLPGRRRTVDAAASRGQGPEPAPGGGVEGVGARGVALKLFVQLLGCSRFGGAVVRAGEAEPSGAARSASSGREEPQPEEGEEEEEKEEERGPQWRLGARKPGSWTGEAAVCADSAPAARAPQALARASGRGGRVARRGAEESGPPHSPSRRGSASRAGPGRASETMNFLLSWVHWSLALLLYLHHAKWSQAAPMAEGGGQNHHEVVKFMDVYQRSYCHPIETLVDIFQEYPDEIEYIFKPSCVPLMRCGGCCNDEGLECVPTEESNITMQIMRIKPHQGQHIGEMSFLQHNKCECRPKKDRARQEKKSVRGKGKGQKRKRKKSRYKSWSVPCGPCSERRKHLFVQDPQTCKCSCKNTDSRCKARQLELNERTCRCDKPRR
T1 sequence (O60462 whole entry): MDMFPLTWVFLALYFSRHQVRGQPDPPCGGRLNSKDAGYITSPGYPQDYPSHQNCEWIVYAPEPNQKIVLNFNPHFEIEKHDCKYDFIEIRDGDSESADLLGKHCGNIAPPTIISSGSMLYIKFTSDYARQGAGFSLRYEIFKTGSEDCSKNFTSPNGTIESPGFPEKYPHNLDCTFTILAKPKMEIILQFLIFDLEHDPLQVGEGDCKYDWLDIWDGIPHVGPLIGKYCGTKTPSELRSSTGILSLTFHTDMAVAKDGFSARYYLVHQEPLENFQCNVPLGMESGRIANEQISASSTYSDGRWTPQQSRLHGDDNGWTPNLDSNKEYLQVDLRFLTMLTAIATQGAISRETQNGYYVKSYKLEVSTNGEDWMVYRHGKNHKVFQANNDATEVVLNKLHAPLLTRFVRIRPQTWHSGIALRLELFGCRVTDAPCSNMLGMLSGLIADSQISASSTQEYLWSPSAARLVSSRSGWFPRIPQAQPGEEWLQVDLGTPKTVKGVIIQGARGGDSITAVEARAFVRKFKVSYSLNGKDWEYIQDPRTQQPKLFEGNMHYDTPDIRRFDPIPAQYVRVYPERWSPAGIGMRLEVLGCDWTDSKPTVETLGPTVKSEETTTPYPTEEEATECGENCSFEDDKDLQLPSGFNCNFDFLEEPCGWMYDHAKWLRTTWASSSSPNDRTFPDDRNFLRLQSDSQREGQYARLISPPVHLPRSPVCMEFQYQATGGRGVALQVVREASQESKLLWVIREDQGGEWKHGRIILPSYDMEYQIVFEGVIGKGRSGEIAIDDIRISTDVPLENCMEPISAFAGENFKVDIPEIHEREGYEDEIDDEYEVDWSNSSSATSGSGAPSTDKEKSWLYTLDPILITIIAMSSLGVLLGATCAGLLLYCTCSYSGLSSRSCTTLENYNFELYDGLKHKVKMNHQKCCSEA
Nature of the data set: Inhibition of human biotinylated-VEGFA165 binding to recombinant human NRP-2 measured after 2 hrs by chemiluminescent based ELISA. It counts as protein-complex assay.

Data set [1] can be described thus: Stability in human serum assessed as compound degradation measured upto 96 hrs by LC-SWATH-MS analysis. It counts as ADME, cell-free.
For data set [2], the system named is MDA-MB-231. Nature of the data set: Increase in NRP-1 expression in human MDA-MB-231 cell membrane at 7.2 uM preincubated for 15 mins at 4 degC followed by compound washout and further incubated for 60 mins with subsequent addition of compound at 37 degC by FITC-streptavidin staining based flow cytometry analysis. In kind it is functional. The settings on record: time 75.0 min. Background: Flow cytometry measures light scatter and fluorescence of single cells or particles in a stream.

The species named for a further data set is Homo sapiens. Nature of the data set: Selectivity ratio of IC50 for inhibition of human biotinylated-VEGFA165 binding to recombinant human NRP-1 to IC50 for inhibition of human biotinylated-VEGFA165 binding to recombinant human NRP-2.
Data set [3] has as its system MDA-MB-231. Nature of the data set: Increase in NRP-1 expression in human MDA-MB-231 cell membrane at 72 uM preincubated for 15 mins at 4 degC followed by compound washout and further incubated for 5 mins with subsequent addition of compound at 37 degC by FITC-streptavidin staining based flow cytometry analysis. In kind it is functional. The settings on record: time 20.0 min.

Data set [4] can be described thus: Stability in human serum assessed as parent compound remaining measured after 8 hrs by LC-SWATH-MS analysis. In kind it is ADME, cell-free. The settings on record: read-out: Stability.
Data set [5] has as its system MDA-MB-231. Nature of the data set: Increase in NRP-1 expression in human MDA-MB-231 cell membrane at 72 uM preincubated for 15 mins at 4 degC followed by compound washout and further incubated for 60 mins with subsequent addition of compound at 37 degC by FITC-streptavidin staining based flow cytometry analysis. In kind it is functional. Conditions: time 75.0 min.

In data set [6] the target is VEGFR1-VEGA (Homo sapiens) (UniProt P15692+P17948). Nature of the data set: Inhibition of human biotinylated-VEGFA165 binding to recombinant human VEGFR1 measured after 2 hrs by chemiluminescent based ELISA. In kind it is protein-complex assay.
Data set [7] has as its target VEGFR2-VEGA (Homo sapiens) (UniProt P15692+P35968). Nature of the data set: Inhibition of human biotinylated-VEGFA165 binding to recombinant human VEGFR2 measured after 2 hrs by chemiluminescent based ELISA. It counts as protein-complex assay.
Data set [8] is described as follows: Half-life in human serum by LC-SWATH-MS analysis. In kind it is ADME, cell-free.
The nature of data set [9]: Stability in human serum assessed as parent compound remaining measured after 12 hrs by LC-SWATH-MS analysis. Conditions: read-out: Stability. It counts as ADME, cell-free.
Data set [10] in a line: Stability in human serum assessed as parent compound remaining measured after 24 hrs by LC-SWATH-MS analysis. It counts as ADME, cell-free. The settings on record: read-out: Stability.

For the compound `N=C(N)NCCCC[C@H](NC(=O)[C@@H](N)CS)C(=O)NCCCC[C@H](N)C(=O)N[C@@H](CCN)C(=O)N1C2CCCCC2C[C@H]1C(=O)N[C@@H](CCCNC(=N)N)C(=O)O` (some centres not stated) (HELM PEPTIDE1{K.[Dab].[O=C([C@@H]1CC2CCCCC2N1[*:1])[*:2]].R}|PEPTIDE2{C.[N=C(N)NCCCC[C@H](N[*:1])C(=O)[*:2]]}$PEPTIDE1,PEPTIDE2,1:R3-2:R2$$$V2.0), the IC50 on VEGA-NRP1 (read-out: IC50) worked out at 46 nM; at NRP2-VEGA (read-out: IC50) it was 9 nM. In data set [1], the Stability result is listed as “Unstable”. In addition, the result in the data set with MDA-MB-231 [2], with MDA-MB-231 [3] and in the data set on MDA-MB-231 [5] was Active. Besides, the Ratio IC50 in the data set listed under Homo sapiens stood at 5. For the same compound, in data set [4], the remaining at 8 h was determined as 47%. The inhibition result in data set [6] and in data set [7] was “inactive” throughout. In addition, the half-life (usually how long it takes for the measured level to halve) in data set [8] was less than 8 h.

`N=C(N)NCCCC[C@H](N)C(=O)NCCCC[C@H](NC(=O)[C@@H](N)CS)C(=O)N[C@@H](CCN)C(=O)N1C2CCCCC2C[C@H]1C(=O)N[C@@H](CCCNC(=N)N)C(=O)O` (some centres not stated) (HELM PEPTIDE1{C.K.[Dab].[O=C([C@@H]1CC2CCCCC2N1[*:1])[*:2]].R}|PEPTIDE2{[N=C(N)NCCCC[C@H](N)C(=O)[*:2]]}$PEPTIDE1,PEPTIDE2,2:R3-1:R2$$$V2.0): the IC50 on VEGA-NRP1 (read-out: IC50) was 39 nM; on VEGA-NRP1 (read-out: pIC50 (converted)) it was 43.1 nM; at NRP2-VEGA (read-out: IC50), 43 nM; on NRP2-VEGA (read-out: pIC50 (converted)), 475 nM. For the same compound, in data set [1], the Stability entry is “Unstable”. Moreover, the outcome in the data set with MDA-MB-231 [2], in the data set on MDA-MB-231 [3] and in the data set on MDA-MB-231 [5] was Active. In addition, the Ratio IC50 in the data set listed under Homo sapiens is 5. For the same compound, the inhibition entry in data set [6] and in [7] was “inactive” in each case. In [8], the half-life was roughly 8 h. In addition, the remaining at 12 h in data set [9] came to 61%.

For the compound `N=C(N)NCCCC[C@H](N)C(=O)NCC[C@H](N)C(=O)N[C@@H](CCN)C(=O)N1C2CCCCC2C[C@H]1C(=O)N[C@@H](CCCNC(=N)N)C(=O)O` (some centres not stated) (HELM PEPTIDE1{[Dab].[Dab].[O=C([C@@H]1CC2CCCCC2N1[*:1])[*:2]].R}|PEPTIDE2{[N=C(N)NCCCC[C@H](N)C(=O)[*:2]]}$PEPTIDE1,PEPTIDE2,1:R3-1:R2$$$V2.0), on VEGA-NRP1 (read-out: pIC50 (converted)), the IC50 was 2240 nM. The remaining at 8 h in data set [4] turned out to be 56%. Besides, the remaining at 24 h in data set [10] was 0%.
